Three molecules from paper PMC4885879, “Genomic Rearrangements and Functional Diversification of lecA and lecB Lectin-Coding Regions Impacting the Efficacy of Glycomimetics Directed against Pseudomonas aeruginosa” (Frontiers in Microbiology, 2016) can be followed below.

SMILES strings stand for the structures.

For experiment [1], the target named is T1, LecBPA7 (Pseudomonas paraeruginosa, UniProt A6V267). The experiment is described as follows: ITC. It is filed as binding. Further details: gene PSPA7_1769; recombinant LecBPA7.
T1 sequence (A6V267 entry or part of it): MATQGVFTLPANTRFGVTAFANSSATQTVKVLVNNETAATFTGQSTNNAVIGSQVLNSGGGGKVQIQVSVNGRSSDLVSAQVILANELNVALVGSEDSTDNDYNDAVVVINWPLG
The target of experiment [2] is T1, LecBPA7. Nature of the experiment: X-ray crystal structure ([…] Å) and ITC. Format: binding. More on the design: gene PSPA7_1769; recombinant LecBPA7, 114 amino acids, tetramer.

On to `CO[C@H]1O[C@H](CO)[C@@H](O)[C@H](O)[C@@H]1O` [ManOMe, methyl α-D-mannoside], for which the Kd in experiment [1] came out at 73000 nM.

Turning to `CO[C@@H]1O[C@@H](C)[C@@H](O)[C@@H](O)[C@@H]1O` [FucOMe, methyl α-L-fucoside], in experiment [1], the Kd worked out at 2200 nM.

For `CC(=O)N[C@H]1[C@H](O[C@H]2[C@@H](O)[C@@H](CO)OC(O)[C@@H]2O)O[C@H](CO)[C@@H](O[C@@H]2O[C@@H](C)[C@@H](O)[C@@H](O)[C@@H]2O)[C@@H]1O[C@@H]1O[C@H](CO)[C@H](O)[C@H](O)[C@H]1O` (stereo partly drawn) [Lewis^a tetrasaccharide], in experiment [2], the Kd was 2010 nM.

For orientation: Kd means the equilibrium constant for the complex coming apart.
